The values below are quoted from earlier work in patent US9877937B2, “Compounds and methods for treating aberrant adrenocortical cell disorders” (Millendo Therapeutics, Inc., priority 2012, dated 2018).

This data set has as its system adrenocortical carcinoma (ACC). The settings on record: cited from earlier work.

Regarding `Clc1ccc(C(c2ccccc2Cl)C(Cl)Cl)cc1` (centres unmarked) [mitotane], the “proportion of patients with increased progression-free survival” value (ACC patients) is “one-quarter to one-third”. Further, the elimination half-life result (accumulates in fat tissue) was “months”. Also, under “patients that derive a therapeutic benefit”, the “average delay of disease progression” value is listed as “five”. In addition, where the note is “patients”, the “blood level required for therapeutic benefit” value is 14000 ng/mL and the toxic blood level is 20 mg/L.
